Experiment [1] has as its target Histamine H3 receptor (Rattus norvegicus, UniProt Q9QYN8). Briefly: Binding affinity towards Histamine H3 receptor of rat cortical membranes.
Experiment [2] has as its target Histamine H1 receptor (Homo sapiens, UniProt P35367). The experiment is described as follows: Binding affinity towards Histamine H1 receptor of human membranes.
In experiment [3] the target is Histamine H2 receptor (Homo sapiens, UniProt P25021). The experiment is described as follows: Binding affinity towards Histamine H2 receptor from human membranes.
Sequence of Histamine H2 receptor (P25021 whole entry): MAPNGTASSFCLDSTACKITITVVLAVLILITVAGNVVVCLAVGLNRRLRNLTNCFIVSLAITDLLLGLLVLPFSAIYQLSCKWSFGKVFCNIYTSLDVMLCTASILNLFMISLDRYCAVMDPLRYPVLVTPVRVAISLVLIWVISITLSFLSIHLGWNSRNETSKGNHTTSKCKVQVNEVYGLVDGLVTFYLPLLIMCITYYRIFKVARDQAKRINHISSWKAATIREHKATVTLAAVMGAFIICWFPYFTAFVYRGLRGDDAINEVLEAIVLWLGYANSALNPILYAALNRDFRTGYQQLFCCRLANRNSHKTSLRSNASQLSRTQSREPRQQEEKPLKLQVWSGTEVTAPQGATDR

Sequence of Histamine H3 receptor (Q9QYN8 whole entry): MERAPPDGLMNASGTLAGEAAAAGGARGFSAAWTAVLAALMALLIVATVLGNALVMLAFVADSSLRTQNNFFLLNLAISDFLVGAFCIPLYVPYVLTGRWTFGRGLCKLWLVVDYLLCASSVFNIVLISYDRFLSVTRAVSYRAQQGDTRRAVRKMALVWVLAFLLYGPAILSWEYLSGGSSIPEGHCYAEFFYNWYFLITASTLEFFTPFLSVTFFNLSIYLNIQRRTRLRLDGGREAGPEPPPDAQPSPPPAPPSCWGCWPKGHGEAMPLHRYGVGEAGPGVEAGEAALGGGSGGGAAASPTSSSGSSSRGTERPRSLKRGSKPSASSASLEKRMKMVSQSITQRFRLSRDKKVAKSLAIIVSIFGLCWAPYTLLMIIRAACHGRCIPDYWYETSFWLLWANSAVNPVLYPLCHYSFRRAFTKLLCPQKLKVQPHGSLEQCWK
Sequence of Histamine H1 receptor (P35367 whole entry): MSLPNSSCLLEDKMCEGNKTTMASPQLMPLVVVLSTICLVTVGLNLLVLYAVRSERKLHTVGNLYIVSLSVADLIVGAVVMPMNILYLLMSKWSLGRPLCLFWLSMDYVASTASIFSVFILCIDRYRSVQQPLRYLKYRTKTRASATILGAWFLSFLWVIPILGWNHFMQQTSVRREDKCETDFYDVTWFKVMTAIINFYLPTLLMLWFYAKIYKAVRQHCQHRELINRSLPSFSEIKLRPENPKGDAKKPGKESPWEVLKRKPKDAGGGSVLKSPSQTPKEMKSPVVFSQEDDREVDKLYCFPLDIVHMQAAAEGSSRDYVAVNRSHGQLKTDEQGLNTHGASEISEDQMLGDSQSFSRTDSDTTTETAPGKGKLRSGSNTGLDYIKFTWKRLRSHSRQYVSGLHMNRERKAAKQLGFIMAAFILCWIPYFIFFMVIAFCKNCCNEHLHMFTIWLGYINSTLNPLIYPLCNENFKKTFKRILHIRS

As to `N[C@H](CC1CCCCC1)C(=O)N1CCN(CCCOc2ccc(C(=O)C3CC3)cc2)CC1`, the Ki was 0.162 µM in experiment [1], 14.5 µM in experiment [2] and 20.4 µM in experiment [3].
On the same counts, the results for `CC(C)(C)OC(=O)N1CCC[C@@H]1C(=O)N1CCN(CCCOc2ccc(C(=O)C3CC3)cc2)CC1` are 0.12 µM, 46.8 µM and 50.1 µM.
As for `N#CC[C@@H](N)C(=O)N1CCN(CCCOc2ccc(C(=O)C3CC3)cc2)CC1`, the values for the Ki in experiment [1], in experiment [2] and in experiment [3] were 0.0288 µM, 45.7 µM and 72.4 µM, respectively.
For `CCCCCC(=O)c1ccc(OCCCN2CCN(C(=O)[C@H](N)CC(C)C)CC2)cc1`, the inhibition constant Ki in experiment [1] is 0.0617 µM; in experiment [2], 14.5 µM; in experiment [3] it was 14.1 µM.
For `N[C@H](Cc1ccc(F)cc1)C(=O)N1CCN(CCCOc2ccc(C(=O)C3CC3)cc2)CC1`, in that order: 0.0295 µM, 9.33 µM and 39.8 µM.
On the same counts, the results for `CN[C@@H](C(=O)N1CCN(CCCOc2ccc(C(=O)C3CC3)cc2)CC1)C(C)C` are 0.0759 µM, 34.7 µM and 49 µM.
On the same counts, the results for `N[C@H](Cc1nccs1)C(=O)N1CCN(CCCOc2ccc(C(=O)C3CC3)cc2)CC1` are 0.00575 µM, 100 µM and 97.7 µM.
Consider `C[C@H](N)C(=O)N1CCN(CCCOc2ccc(C(=O)C3CC3)cc2)CC1`, for which the Ki in experiment [1] was 0.0204 µM; in experiment [2], 53.7 µM; in experiment [3] it was 41.7 µM.
Take `CCCCCC(=O)c1ccc(OCCCN2CCN(C(=O)[C@@H](N)Cc3ccncc3)CC2)cc1`: the figures for the Ki in experiment [1], in experiment [2] and in experiment [3] were 0.0102 µM, 2.29 µM and 34.7 µM, respectively.
On the same counts, the results for `CCCCCC(=O)c1ccc(OCCCN2CCN(C(=O)[C@H](NC(=O)OC(C)(C)C)C(C)C)CC2)cc1` are 0.0148 µM, 3.31 µM and 13.5 µM.
Consider `CN[C@H](Cc1ccccc1)C(=O)N1CCN(CCCOc2ccc(C(=O)C3CC3)cc2)CC1`, for which the inhibition constant (Ki) in experiment [1] is 0.0437 µM; in experiment [2], 13.5 µM; in experiment [3] it was 17.8 µM.
With `O=C(c1ccc(OCCCN2CCN(C(=O)[C@H]3CCN3)CC2)cc1)C1CC1`, the Ki in experiment [1] is 0.00132 µM; in experiment [2], 12.6 µM; in experiment [3] it was 14.1 µM.
In the case of `CC(C)(C)OC(=O)N[C@H](Cc1ccccc1)C(=O)N1CCN(CCCOc2ccc(C(=O)C3CC3)cc2)CC1`, the results for the Ki in experiment [1], in experiment [2] and in experiment [3] were 0.00398 µM, 5.5 µM and 10 µM, respectively.
For `CC(C)(C)[C@@H](N)C(=O)N1CCN(CCCOc2ccc(C(=O)C3CC3)cc2)CC1`, in that order: 0.0525 µM, 21.9 µM and 19.1 µM.
On the same counts, the results for `N[C@@H](C(=O)N1CCN(CCCOc2ccc(C(=O)C3CC3)cc2)CC1)C1Cc2ccccc2C1` are 0.0263 µM, 10.7 µM and 19.1 µM.
On the same counts, the results for `O=C(c1ccc(OCCCN2CCN(C(=O)[C@H]3CCCN3)CC2)cc1)C1CC1` are 0.0302 µM, 37.2 µM and 53.7 µM.
On to `N[C@H](Cc1cccc2ccccc12)C(=O)N1CCN(CCCOc2ccc(C(=O)C3CC3)cc2)CC1`, for which the inhibition constant (Ki) in experiment [1] is 0.214 µM; in experiment [2], 2 µM; in experiment [3], 20.9 µM.
For `N[C@H](Cc1ccc(O)cc1)C(=O)N1CCN(CCCOc2ccc(C(=O)C3CC3)cc2)CC1`, in that order: 0.0302 µM, 9.77 µM and 33.1 µM.
For `CCCCCC(=O)c1ccc(OCCCN2CCN(C(=O)[C@@H](Cc3ccncc3)NC(=O)OC(C)(C)C)CC2)cc1`, in that order: 0.0234 µM, 17 µM and 12 µM.
For `CCCCCC(=O)c1ccc(OCCCN2CCN(C(=O)[C@H](N)Cc3ccncc3)CC2)cc1`, in that order: 0.00912 µM, 3.31 µM and 37.2 µM.
For the molecule `CC(C)(C)C[C@@H](N)C(=O)N1CCN(CCCOc2ccc(C(=O)C3CC3)cc2)CC1`, the affinity in experiment [2], expressed as Ki, was 10.2 µM.
For the molecule `N[C@H](CCc1ccccc1)C(=O)N1CCN(CCCOc2ccc(C(=O)C3CC3)cc2)CC1`, the inhibition constant Ki in experiment [1] was 0.00457 µM; in experiment [2], 10 µM; in experiment [3] it was 10 µM.
For the molecule `N[C@H](Cc1cc2ccccc2s1)C(=O)N1CCN(CCCOc2ccc(C(=O)C3CC3)cc2)CC1`, the Ki in experiment [1] was 0.288 µM; in experiment [2], 4.37 µM; in experiment [3] it was 15.1 µM.
On to `CNCC(=O)N1CCN(CCCOc2ccc(C(=O)C3CC3)cc2)CC1`, for which the Ki is 0.00229 µM in experiment [1], 100 µM in experiment [2] and 79.4 µM in experiment [3].
As for `CC[C@@H](N)C(=O)N1CCN(CCCOc2ccc(C(=O)C3CC3)cc2)CC1` (stereo in doubt; 43), the values for the Ki in experiment [1], in experiment [2] and in experiment [3] were 0.00158 µM, 70.8 µM and 100 µM, respectively.
For the molecule `C[C@@H](NC(=O)OC(C)(C)C)C(=O)N1CCN(CCCOc2ccc(C(=O)C3CC3)cc2)CC1`, the figures for the inhibition constant Ki in experiment [2] and in experiment [3] were 8.13 µM and 83.2 µM, respectively.
As for `CC[C@@H](N)C(=O)N1CCN(CCCOc2ccc(C(=O)C3CC3)cc2)CC1` (stereo in doubt; 57), the Ki was 0.00195 µM in experiment [1], 2.09 µM in experiment [2] and 11 µM in experiment [3].
As to `CCCCCC(=O)c1ccc(OCCCN2CCN(C(=O)[C@H](CC(C)C)NC(=O)OC(C)(C)C)CC2)cc1`, the Ki in experiment [1] is 0.112 µM; in experiment [2] it was 8.13 µM; in experiment [3], 3.47 µM.
On the same counts, the results for `CCCCCC(=O)c1ccc(OCCCN2CCN(C(=O)[C@@H](NC(=O)OC(C)(C)C)C(C)C)CC2)cc1` are 0.0977 µM, 10.7 µM and 12.6 µM.
As for `CC(C)N[C@H](C)C(=O)N1CCN(CCCOc2ccc(C(=O)C3CC3)cc2)CC1`, the inhibition constant Ki in experiment [1] was 0.00871 µM; in experiment [2], 46.8 µM; in experiment [3] it was 50.1 µM.
Regarding `O=C1C[C@H](N2CCN(CCCOc3ccc(C(=O)C4CC4)cc3)CC2)N1`, the Ki was 0.0427 µM in experiment [1], 21.9 µM in experiment [2] and 26.9 µM in experiment [3].
On the same counts, the results for `CC[C@H](N)C(=O)N1CCN(CCCOc2ccc(C(=O)C3CC3)cc2)CC1` are 0.00251 µM, 4.68 µM and 10.7 µM.
`CCCCCC(=O)c1ccc(OCCCN2CCN(C(=O)[C@@H](N)CC(C)C)CC2)cc1`: the Ki in experiment [1] is 0.17 µM; in experiment [2] it was 9.77 µM; in experiment [3], 16.6 µM.
For `O=C(c1ccc(OCCCN2CCN(C(=O)C[C@H]3CCCN3)CC2)cc1)C1CC1`, the Ki in experiment [2] is 95.5 µM; in experiment [3], 89.1 µM.
Take `CC(C)(C)OC[C@@H](N)C(=O)N1CCN(CCCOc2ccc(C(=O)C3CC3)cc2)CC1`: the results for the inhibition constant (Ki) in experiment [1], in experiment [2] and in experiment [3] were 0.00851 µM, 16.2 µM and 45.7 µM, respectively.
For `C[C@H](CN)C(=O)N1CCN(CCCOc2ccc(C(=O)C3CC3)cc2)CC1`, in that order: 0.00891 µM, 1.74 µM and 10.7 µM.
On the same counts, the results for `CCCCCC(=O)c1ccc(OCCCN2CCN(C(=O)[C@@H](CC(C)C)NC(=O)OC(C)(C)C)CC2)cc1` are 0.0145 µM, 4.68 µM and 4.47 µM.
Regarding `CCCCCC(=O)c1ccc(OCCCN2CCN(C(=O)[C@@H](CO)NC(=O)OC(C)(C)C)CC2)cc1`, the results for the Ki in experiment [1], in experiment [2] and in experiment [3] were 0.0024 µM, 17 µM and 22.9 µM, respectively.
As for `CCCCCC(=O)c1ccc(OCCCN2CCN(C(=O)[C@@H](C)NC(=O)OC(C)(C)C)CC2)cc1`, the Ki in experiment [1] is 0.00123 µM; in experiment [2] it was 6.76 µM; in experiment [3] it was 10.7 µM.
For the molecule `CCC[C@@H](N)C(=O)N1CCN(CCCOc2ccc(C(=O)C3CC3)cc2)CC1`, the Ki is 0.00398 µM in experiment [1], 46.8 µM in experiment [2] and 60.3 µM in experiment [3].
For `O=C(c1ccc(OCCCN2CCN(C(=O)[C@@H]3CCN3)CC2)cc1)C1CC1`, in that order: 0.0129 µM, 10 µM and 12.3 µM.
On the same counts, the results for `CCCCCC(=O)c1ccc(OCCCN2CCN(C(=O)[C@H](N)C(C)C)CC2)cc1` are 0.017 µM, 16.6 µM and 31.6 µM.
For `C[C@@H](CN)C(=O)N1CCN(CCCOc2ccc(C(=O)C3CC3)cc2)CC1`, in that order: 0.00646 µM, 1.51 µM and 10.2 µM.
Take `N[C@H](Cc1ccc(-c2ccccc2)cc1)C(=O)N1CCN(CCCOc2ccc(C(=O)C3CC3)cc2)CC1`: the Ki in experiment [1] was 0.132 µM; in experiment [2] it was 12 µM; in experiment [3], 20.4 µM.
On the same counts, the results for `N[C@H](Cc1c[nH]cn1)C(=O)N1CCN(CCCOc2ccc(C(=O)C3CC3)cc2)CC1` are 0.00457 µM, 95.5 µM and 89.1 µM.
For `CCCCCC(=O)c1ccc(OCCCN2CCN(C(=O)[C@@H](N)C(C)C)CC2)cc1`, in that order: 0.0794 µM, 19.1 µM and 38 µM.
For `CCCCCC(=O)c1ccc(OCCCN2CCN(C(=O)[C@H](Cc3ccncc3)NC(=O)OC(C)(C)C)CC2)cc1`, in that order: 0.0537 µM, 9.33 µM and 14.8 µM.
For `N[C@@H](C(=O)N1CCN(CCCOc2ccc(C(=O)C3CC3)cc2)CC1)c1ccccc1`, the Ki in experiment [1] is 0.0275 µM; in experiment [2] it was 4.57 µM; in experiment [3] it was 24.5 µM.
On the same counts, the results for `O=C1C[C@@H](N2CCN(CCCOc3ccc(C(=O)C4CC4)cc3)CC2)N1` are 0.00437 µM, 10 µM and 10 µM.
With `CCCCCC(=O)c1ccc(OCCCN2CCN(C(=O)[C@@H](C)N)CC2)cc1`, the values for the inhibition constant (Ki) in experiment [1], in experiment [2] and in experiment [3] were 0.00191 µM, 35.5 µM and 40.7 µM, respectively.
Consider `CCCCCC(=O)c1ccc(OCCCN2CCN(C(=O)[C@H](N)CO)CC2)cc1`, for which the Ki in experiment [1] is 0.00708 µM; in experiment [2] it was 46.8 µM; in experiment [3] it was 34.7 µM.
Consider `N[C@H](Cc1ccsc1)C(=O)N1CCN(CCCOc2ccc(C(=O)C3CC3)cc2)CC1`, for which the Ki in experiment [1] is 0.0229 µM; in experiment [2], 9.77 µM; in experiment [3], 46.8 µM.

These data come from ChEMBL document CHEMBL1135199, “Structure-activity relationships of non-imidazole H(3) receptor ligands. Part 2: binding preference for D-amino acids motifs” (Bioorg Med Chem Lett, 2002).
